In patent EP0300675A2, “Method for the improvement of cyclosporine therapy” (MERCK FROSST CANADA INC., priority 1987, dated 1989):

Test system: cyclosporine A-induced nephrotoxicity
Assay: cyclosporine A-induced nephrotoxicity (rise in serum BUN) in SHR rats dosed for 14 days
Type: in vivo, female spontaneously hypertensive (SHR) rats
Conditions: for Serum BUN ± S.E.M.: 14 days; for inhibition of the increase in serum BUN: 3 mg/kg/day in saline
Method: All experiments were carried out using female spontaneously hypertensive (SHR) rats, weight range 160-200 gm, obtained from Taconic Farms. […] Four thromboxane antagonists have been studied so far. […] Thromboxane antagonists have been administered as the sodium salt dissolved in saline, the sodium salt dissolved in 0.1% NaHCO₃ or the free acid suspended in 1% Methocel.

[1] = 3 mg/kg/day in saline with cyclosporine A 25 mg/kg/day, Combined experiments
[2] = 3 mg/kg/day in saline with cyclosporine A 25 mg/kg/day, Experiment 1
[3] = second experiment combined together

CS(=O)(=O)c1ccc(Cn2c3c(c4cc(F)cc(F)c42)CCCC3CC(=O)O)cc1 (single isomer, unassigned; (-)) [Compound 4, (-)-9-(p-Methylsulfonylbenzyl)-6,8-difluoro-1,2,3,4-tetrahydrocarbazol-1-yl acetic acid]
Serum BUN ± S.E.M. (3 mg/kg/day, suspension of free acid in 1% Methocel, with cyclosporine A 25 mg/kg/day, Table 5): 23.5 ± 1.0 mg/100 ml | Serum BUN ± S.E.M. (10 mg/kg/day, suspension of free acid in 1% Methocel, with cyclosporine A 25 mg/kg/day, Table 5): 21.9 ± 0.8 mg/100 ml | effect on cyclosporine A-induced rises in serum BUN (both 3 and 10 mg/kg/day, suspension of the free acid): effective

O=C(O)CC1CCCc2c1n(Cc1ccc(Cl)cc1)c1ccc(F)cc21 (racemic) [Compound 2, 9-(p-Chlorobenzyl)-6-fluoro-1,2,3,4-tetrahydrocarbazol-1-yl acetic acid]
Serum BUN ± S.E.M. [1]: 30.3 ± 2.0 mg/100 ml | Serum BUN ± S.E.M. [2]: 24.6 ± 1.7 mg/100 ml | inhibition of the increase in serum BUN (one experiment (Table 2)): significant inhibition | inhibition of the increase in serum BUN [3]: no significant inhibition

O=C(O)CC1CCCc2c1n(Cc1ccc(Cl)cc1)c1c(F)cc(F)cc21 (single isomer, unassigned; (-)) [Compound 3, (-)-9-(p-Chlorobenzyl)-6,8-difluoro-1,2,3,4-tetrahydrocarbazol-1-yl acetic acid]
Serum BUN ± S.E.M. (3 mg/kg/day, suspension of free acid in 1% Methocel, with cyclosporine A 25 mg/kg/day, Table 4 (two separate experiments)): 23.2 ± 0.9 mg/100 ml | Serum BUN ± S.E.M. (10 mg/kg/day, suspension of free acid in 1% Methocel, with cyclosporine A 25 mg/kg/day, Table 4 (two separate experiments)): 24.0 ± 1.1 mg/100 ml | inhibition of the rise in serum BUN (both doses (3 and 10 mg/kg/day), suspension of the free acid, two separate experiments): significant inhibition

Cc1c(CC(C)(C)C(=O)O)n(Cc2ccc(Cl)cc2)c2ccc(F)cc12 [Compound 1, 3-(1-(4-Chlorobenzyl)-3-methyl-5-fluoroindol-2 yl)-2,2-dimethyl propanoic acid]
inhibition of the increase in serum BUN induced by cyclosporine A (3 mg/kg/day in 0.1% NaHCO₃): No significant inhibition | Serum BUN ± S.E.M. (3 mg/kg/day in 0.1% NaHCO₃ with cyclosporine A 25 mg/kg/day): 28.3 ± 2.2 mg/100ml | Serum BUN ± S.E.M. [1]: 28.0 ± 1.6 mg/100 ml | Serum BUN ± S.E.M. [2]: 24.5 ± 1.1 mg/100 ml | inhibition of the increase in serum BUN (one experiment (Table 2)): significant inhibition | inhibition of the increase in serum BUN [3]: no significant inhibition | Serum BUN ± S.E.M. (10 mg/kg/day in 0.1% NaHCO₃ with cyclosporine A 25 mg/kg/day, 2 separate experiments): 23.4 ± 0.9 mg/100ml | inhibition of the increase in serum BUN induced by cyclosporine A (10 mg/kg/day in 0.1% NaHCO₃, mean of two separate experiments, p < 0.05): significant inhibition
